# From patent US11034666B2, “Anti-inflammatory and antitumor 2-oxothiazoles and 2-oxothiophenes compounds” (Avexxin AS, priority 2013, dated 2021)
# Legend:
# [1] = tested on: PGE2; assay: Plasma PGE2 EIA, therapeutic CIA study; type: in vivo, male DBA/1 mice
# Experimental: There were no significant differences between the treatment groups (p>0.05).
# (§1) PGE2 EIA analysis of blood plasma from the prophylactic and therapeutic CIA studies was performed according to kit protocol. Plasma samples were diluted 1:1000-1:6000 in EIA buffer and allowed to hybridize over-night (18 hrs, 4° C.). The plate was read using a Multiscan plate reader (Ascent Labsystems) (OD550 nm). The corresponding Ascent software for Multiscan, Version 2.4.1 was used to obtain the data. PGE2 levels for all treatments are shown relative to the DMSO-treated vehicle arthritic mice (n=10-11 mice in each category±SD).
# (§2) For the prophylactic and the therapeutic studies, CIA was induced in male DBA/1 mice (except naïve mice) by immunization with 0.1 mL emulsion containing an equal volume of bovine type II collagen solution (2 mg/mL) and Freuds Complete Adjuvant at the tail base. The first injection was given on Day 0 and the second injection as booster was given on Day 21 (41-43). COMPOUND A, vehicle (DMSO) and MTX (0.3 mg/kg) were administered daily, Enbrel (25 mg/kg) was administrated twice a week. For the prophylactic study, treatment started one hour before the second collagen injection and continued for 21 days except for the histology groups that were sacrificed at Day 13 ([…]). For the therapeutic study, treatment started at Day 28 and continued for 14 days.
# [2] = tested on: collagen-induced arthritis (CIA) mouse model; assay: Therapeutic collagen-induced arthritis (CIA) study; type: in vivo, male DBA/1 mice; details: Days 36 to 41; Compound A 30 mg/kg ip daily; Enbrel 25 mg/kg twice a week
# Source text: The therapeutic effect of Compound A on CIA model in male DBA/1 mice following ip administration, treatment starting 7 days after the last immunization was explored. CIA developed rapidly in mice immunized with CII, with maximum AI of 10.2 observed at 39 days post immunization. The AI and incidence of vehicle- and Compound A treated groups increased in a time-dependent mode from Days 29 to 41. […] Compound A and Enbrel performed equally well; there were no significant difference between these treatments groups.
# Separate prophylactic and therapeutic efficacy studies of COMPOUND A were performed. […] Body weights were measured and recorded prior to randomization and then once daily during the study. Food consumption was measured and recorded daily. […] Necropsy examinations were performed at study termination; plasma samples were collected, organ weights were recorded […]
# CIA Assessment and Treatment. CIA was assessed in mice by two blinded observers to measure paw swelling with a capacity measurement method on Day 0, Day 20, Day 22, Day 25, Day 27, Day 29, Day 32, Day 34, Day 36, Day 39 and Day 41 after the first injection. […] However, the values measured were not included in the mean value calculations of the main groups. […]
# [3] = tested on: MAS98.12 xenograft; assay: Patient-derived basal-like breast cancer xenograft, long-term treatment; type: in vivo, mouse
# Experimental: As described more fully below, we conducted a study in a patient-derived xenograft model of basal-like breast cancer, which is responsive to […], is highly vascularised and has a high expression of cPLA2. The mice received 30 mg Compound A/kg bw by ip. injection daily for a 7 days, then every second day for 14 more days. A group of control mice received DMSO only. Tumor volumes were measured throughout the study period.
# Mouse model: MAS98.12. This model is established from a primary breast carcinoma at the Institute for Cancer Research, OUS [10]. The MR Cancer Group has previously characterised this model both with respect to metabolic profile, vascularisation, response to antiangiogenic treatment and response to PI3K inhibition. Treatment was initiated when the xenograft tumors had reached a volume of 83±51 mm3 (tumor volume=d1×d2×[…]). The majority of mice had bilateral tumors.
# Mice received 30 mg/kg bw COMPOUND A in 50 μl DMSO, through intraperitoneal injection. Control groups received volume-matched, drug-free DMSO injections. Tumor volume measured with electronic callipers from day −3 until the end of the experiment (Day 19).
# Arm 2: Long-term treatment One group (n=6, 11 tumors) treated with COMPOUND A daily for 7 days, then every 2nd day for the remainder of the study. Controls (n=6, 10 tumors) treated with drug-free DMSO according to the same protocol. […] Throughout the study, the tumor volume was measured every 2-3 days, and the body weight of the mice was monitored regularly.
# [4] = tested on: PGE2; assay: Plasma PGE2 EIA, prophylactic CIA study; type: in vivo, male DBA/1 mice
# Experimental: PGE2 is recognized as an important contributor to the joint inflammation in rheumatoid arthritis,^60 and we investigated if plasma PGE2 levels were changed in response to treatment. […] There were no significant differences between the treatment groups (p>0.05).
# as §1, §2
smiles,measurement,setting,value
"CCCCCCCCc1ccc(OCC(=O)c2nc(C(=O)OC)cs2)cc1 [Compound A, Methyl 2-(2-(4-octylphenoxy)acetyl)thiazole-4-carboxylate]",plasma PGE2 level,"[1]; therapeutic CIA study, Compound A 30 mg/kg, Enbrel 25 mg/kg, vehicle 231.1±110, mean ± SD",139 ± 55 ng/mL
same,reduction of plasma PGE2 levels,"[1]; therapeutic mode, vs vehicle",about 40%
same,arthritic index (AI) in comparison to the CIA control group (in words),[2],significantly decreased
same,tumor volume as % of the control tumors,"[3]; 30 mg/kg bw ip daily for 7 days, then every second day for 14 more days, end of the study",36%
same,tolerability (in words),"[3]; 30 mg/kg ip, long-term treatment",well tolerated with no overt adverse effects
same,body weight,"[3]; 30 mg/kg ip, Day 5",24 ± 3 g
same,body weight,"[3]; 30 mg/kg ip, Day 19",27 ± 3 g
same,maximal tumor diameter,"[3]; 30 mg/kg ip, Day 19",10.5 mm
same,effect on tumor growth (in words),"[3]; 30 mg/kg ip, FIG. 1",strong inhibitory effect on tumor growth
same,tumor volume,"[3]; 30 mg/kg ip, end of the study (Day 19), control 759±401",265±138 mm^3
same,plasma PGE2 level,"[4]; prophylactic CIA study, Compound A 7.5 mg/kg, MTX 0.3 mg/kg, vehicle 223.4±107, mean ± SD",139.8 ± 92 ng/mL
same,reduction of plasma PGE2 levels,"[4]; prophylactic mode, vs vehicle",about 40%
